US20100016366A1, “Novel Compounds Active as Muscarinic Receptor Antagonists” (priority 2008, published 2010)

molecular target: T1, human muscarinic M3 receptor (Homo sapiens, UniProt P20309); test: hM3 competition binding assay (3H-NMS, CHO cell membranes); conditions: CHO cell membranes expressing human M3; 3H-NMS at 5×KD, 24 hr at RT; IC50 corrected by Cheng-Prussoff
T1 construct: expressed in transfected cells; host or cells: CHO (CHO-K1) cells
Description: Binding Affinity Assessment at the Human Recombinant M3 Muscarinic Receptor
Cell Pellets from CHO (Chinese Hamster Ovary) cells recombinantly expressing the human muscarinic M3 receptor were homogenised in 20 mM HEPES (pH7.4) and centrifuged at 48000×g for 20 min at 4° C. The pellet was re-suspended in buffer and the homogenisation and centrifugation steps repeated. The resulting pellet was re-suspended in 1 ml buffer per 1 ml original packed cell volume and the homogenisation step repeated. Protein estimation was carried out on the suspension and 1 ml aliquots of ˜1 mg/ml frozen at −80° C.
hM3 Competition Binding Assay Protocol
Membranes (5 µg/well) were incubated with ^3H-NMS (at a concentration 5×KD) plus/minus test compound for 24 hr at RT (room temperature) in a 1 ml polystyrene 96-well deep well block. The final assay volume was 200 µl, comprising of: 20 µl plus/minus test compound; 20 µl ^3H-NMS (Perkin Elmer NEN 636) and 160 µl membrane solution. Total Binding was defined with 0.1% DMSO; Non-Specific Binding was defined with 1 µM Atropine. Assay buffer was 20 mM Hepes (pH 7.4).
Once all assay components were added, plates were covered and incubated at room temperature for 24 hrs with shaking. The assay was terminated by rapidly filtering through GF/B Unifilter plates pre-soaked with 0.5% polyethylenimine, using a Packard filtermate harvester, the filter plate was then washed with 3×1 ml 4° C. assay buffer. The filter plates were dried at 45° C. for 1 hour. The bottoms of the filter plates were sealed and 50 µl/well of Microscint ‘0’ added, the top of the plates were sealed with a Topseal. Following 90 mins, the plates were read on an NXT Topcount (1 minute read time per well).
The resulting data was expressed as a percentage of the specific binding (Specific binding=Total binding−Non-Specific Binding). % specific binding versus test compound concentration was plotted to determine an IC50 from a sigmoid curve using an in-house data analysis programme. IC50 values corrected to Ki values by applying the Cheng-Prussoff equation: […]
where IC50 is the concentration of unlabelled drug which inhibits by 50% the specific radioligand binding. [L] is the free radioligand concentrations and KD and Ki are the equilibrium dissociation constants of the radioligand and unlabelled drug respectively.

T1 sequence (P20309 whole entry): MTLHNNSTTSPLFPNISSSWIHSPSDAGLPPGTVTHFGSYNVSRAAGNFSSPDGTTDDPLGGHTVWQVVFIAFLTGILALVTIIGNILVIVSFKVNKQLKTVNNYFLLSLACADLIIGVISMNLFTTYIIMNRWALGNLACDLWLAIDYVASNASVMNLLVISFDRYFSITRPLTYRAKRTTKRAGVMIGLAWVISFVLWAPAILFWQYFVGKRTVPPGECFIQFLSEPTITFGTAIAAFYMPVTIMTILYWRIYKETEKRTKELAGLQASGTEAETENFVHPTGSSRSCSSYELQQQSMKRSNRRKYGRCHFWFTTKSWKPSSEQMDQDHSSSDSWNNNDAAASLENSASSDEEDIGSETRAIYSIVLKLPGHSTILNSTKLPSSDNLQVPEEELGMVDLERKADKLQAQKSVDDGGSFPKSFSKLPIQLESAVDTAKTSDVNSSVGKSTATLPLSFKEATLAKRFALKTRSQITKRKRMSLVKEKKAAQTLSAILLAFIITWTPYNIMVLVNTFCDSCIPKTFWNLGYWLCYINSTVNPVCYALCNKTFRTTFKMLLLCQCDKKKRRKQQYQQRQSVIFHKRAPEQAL

Compound	Ki
O=C(Nc1ccccc1-c1ccccc1)OC1CCN(CCCCCCCCCN(Cc2cccc(O)c2Cl)Cc2cccc(O)c2Cl)CC1 [Example 39, Biphenyl-2-yl-carbamic acid 1-{9-[bis-(2-chloro-3-hydroxy-benzyl)-amino]-nonyl}-piperidin-4-yl ester]	1.13 nM
CN(CCCCCCCCCN1CCC(OC(=O)Nc2ccccc2-c2ccccc2)CC1)Cc1cccc(F)c1O [Example 40, Biphenyl-2-yl-carbamic acid 1-{9-[(3-fluoro-2-hydroxy-benzyl)-methyl-amino]-nonyl}-piperidin-4-yl ester]	0.638 nM
CN(CCCCCCCCCN1CCC(OC(=O)Nc2ccccc2-c2ccccc2)CC1)Cc1cc(Cl)c(Cl)cc1O [Example 41, Biphenyl-2-yl-carbamic acid 1-{9-[(4,5-dichloro-2-hydroxy-benzyl)-methyl-amino]-nonyl}-piperidin-4-yl ester]	1.3 nM
CN(CCCCCCCCCN1CCC(OC(=O)Nc2ccccc2-c2ccccc2)CC1)Cc1cc(F)c(Cl)cc1O [Example 43, Biphenyl-2-yl-carbamic acid 1-{9-[(4-chloro-5-fluoro-2-hydroxy-benzyl)-methyl-amino]-nonyl}-piperidin-4-yl ester]	0.295 nM
CN(CCCCCCCCCN1CCC(OC(=O)Nc2ccccc2-c2ccccc2)CC1)Cc1cc(Cl)ccc1O [Example 46, Biphenyl-2-yl-carbamic acid 1-{9-[(5-chloro-2-hydroxy-benzyl)-methyl-amino]-nonyl}-piperidin-4-yl ester]	0.755 nM
CN(CCCCCCCCCN1CCC(OC(=O)Nc2ccccc2-c2ccccc2)CC1)Cc1cc(F)ccc1O [Example 47, Biphenyl-2-yl-carbamic acid 1-{9-[(5-fluoro-2-hydroxy-benzyl)-methyl-amino]-nonyl}-piperidin-4-yl ester]	0.529 nM
CN(CCCCCCCCCN1CCC(OC(=O)Nc2ccccc2-c2ccccc2)CC1)Cc1cc(F)cc(Cl)c1O [Example 49, Biphenyl-2-yl-carbamic acid 1-{9-[(3-chloro-5-fluoro-2-hydroxy-benzyl)-methyl-amino]-nonyl}-piperidin-4-yl ester]	0.285 nM

The next compounds have a lower Ki than those just listed; values first:

Ki	Compound
0.233 nM	CN(CCCCCCCCCN1CCC(OC(=O)Nc2ccccc2-c2ccccc2)CC1)Cc1ccc(F)c(O)c1 [Example 42, Biphenyl-2-yl-carbamic acid 1-{9-[(4-fluoro-3-hydroxy-benzyl)-methyl-amino]-nonyl}-piperidin-4-yl ester]
0.212 nM	CN(CCCCCCCCCN1CCC(OC(=O)Nc2ccccc2-c2ccccc2)CC1)Cc1ccc(O)c(Cl)c1 [Example 44, Biphenyl-2-yl-carbamic acid 1-{9-[(3-chloro-4-hydroxy-benzyl)-methyl-amino]-nonyl}-piperidin-4-yl ester]
0.212 nM	CN(CCCCCCCCCN1CCC(OC(=O)Nc2ccccc2-c2ccccc2)CC1)Cc1ccc(O)c(F)c1 [Example 45, Biphenyl-2-yl-carbamic acid 1-{9-[(3-fluoro-4-hydroxy-benzyl)-methyl-amino]-nonyl}-piperidin-4-yl ester]
0.182 nM	CN(CCCCCCCCCN1CCC(OC(=O)Nc2ccccc2-c2ccccc2)CC1)Cc1cccc(O)c1Cl [Example 48, Biphenyl-2-yl-carbamic acid 1-{9-[(2-chloro-3-hydroxy-benzyl)-methyl-amino]-nonyl}-piperidin-4-yl ester]
0.22 nM	CN(CCCCCCCCCN1CCC(OC(=O)Nc2ccccc2-c2ccccc2)CC1)Cc1cc(Cl)c(O)c(Cl)c1 [Example 50, Biphenyl-2-yl-carbamic acid 1-{9-[(3,5-dichloro-4-hydroxy-benzyl)-methyl-amino]-nonyl}-piperidin-4-yl ester]
0.231 nM	CN(CCCCCCCCCN1CCC(OC(=O)Nc2ccccc2-c2ccccc2)CC1)Cc1cccc(O)c1F [Example 51, Biphenyl-2-yl-carbamic acid 1-{9-[(2-fluoro-3-hydroxy-benzyl)-methyl-amino]-nonyl}-piperidin-4-yl ester]
